Data published in patent US20140371237A1, “p19Arf, HMGA2 and MDM2 For Use in the Diagnosis and Treatment of Aberrant Cell Growth” (University of Bremen, priority 2010, published 2014).

System: canine ADSCs
Assay: Treatment of canine ADSCs with nutlin-3, qRT-PCR of HMGA2 and p21
Assay type: cell-based
Details: two donors, 30 μM and 50 μM, 72 h
Procedure: Canine subcutaneous adipose tissue was taken during surgery, transferred into sterile Hank's solution and minced for cell culture into small pieces followed by treatment with 0.26% (200 U/ml) collagenase (Serva, Heidelberg, Germany). From these samples ADSCs were isolated. Briefly, after 1-2 hours, the dissociated cells were transferred into sterile 25 cm^2 cell culture flasks containing 5 ml medium 199 (Gibco, Karlsruhe, Germany), supplemented with 20% fetal bovine serum (FCS, Invitrogen, Karlsruhe, Germany) and 2% penicillin-streptomycin (Biochrom, Berlin, Germany). The cultures were incubated in 5% CO2 air at 37° C. and medium was changed every two to three days. […]
Relative quantification of transcription levels was carried out by real-time PCR analyses using the Applied Biosystems 7300 Real-Time PCR system (Applied Biosystems, Darmstadt, Germany). For quantification of mRNA levels of canine p21a commercially available gene expression assay was used (Hs99999142) (Applied Biosystems, Darmstadt, Germany). […] For canine cells the housekeeping gene beta-glucuronidase (GUSB) served as the reference for relative quantification because in contrast to some other housekeeping genes its expression turned out not to increase in serum starved ADSCs when induced by fetal serum in our own experiments. […]

Compound: COc1ccc(C2=N[C@@H](c3ccc(Cl)cc3)[C@@H](c3ccc(Cl)cc3)N2C(=O)N2CCNC(=O)C2)c(OC(C)C)c1 [nutlin-3]
- expression of HMGA2: significant decrease
- expression of p21: increase
